Key:
[1] = Stability of betamethasone dipropionate under autoclave; type: physicochemical
[2] = test system: IL13; experiment: OVA model: IL13 ELISA in lung protein extracts; type: in vivo, BALB/c mice; conditions: FIG. 3
Description: In order to study modulation of airway inflammation, BALB/c mice of about 6 to about 8 weeks old are sensitized by intraperitoneal injection of about 10 μg ovalbumin (OVA) (Sigma Aldrich, Schnelldorf, Germany) emulsified in aluminum hydroxide (AlumInject; Perbio, Erembodegem, Belgium) on days 0 (DO) and 7 (D7). Mice are subsequently exposed to allergens by daily inhalation of an aerosol of OVA about 1%, for about 30 minutes, generated by ultrasonic nebulizer (Devilbiss 2000), from day 21 to day 25. Mice are subjected to about 50 μl intra-nasal instillations from day 18 to day 24 and are sacrificed on day 26, as previously reported by Cataldo et al.: Am. J. Pathol. 161 (2):491-498 (2002), which is incorporated herein in its entirety by reference. Placebo mice are intra-nasal injected with PBS. As stated above, the left lung is excised and frozen immediately at about −80° C. and then disrupted in liquid N2 by using a Mikro-Dismembrator (Braun Biotech International, Gmbh Melsungen, Germany) to form a homogenized powder. […] IL13 levels are measured in non-pooled lung protein samples by ELISA (duoset kit, R&D Systems, Abingdon, United Kingdom) following manufacturer's instructions. […]

[3] = test system: Cigarette smoke-exposed mice; experiment: Cigarette smoke exposure model: BALF neutrophils; type: in vivo, C57BL/6 mice; conditions: budesonide alone about 500 μg/ml
Description: BALF supernatant is collected for protein assessment while cells are used for differential cell counts. Differential cell counts based on morphologic criteria are carried out on cytocentrifuged preparations after staining with haematoxylin-eosin (Diff-Quick, Dade, Belgium). Cells are recovered by gentle manual aspiration. After centrifugation of bronchoalveolar fluid (BALF) (about 1200 rpm for about 10 minutes, at about 4° C.), the supernatant is frozen at about −80° C. for protein assessment and the cell pellet is re-suspended in about 1 ml PBS-EDTA about 0.05 mM. The differential cell counts are performed on cytocentrifuged preparations (Cytospin) after staining with Diff-Quick (Dade, Belgium).
C57BL/6 mice are exposed to 10 cigarettes 5 days per week during 6 weeks using the Inexpose® system (Scireq, Montreal, Canada). Mice are treated by an about 50 μl intra-nasal injection 5 days per week during 6 weeks. Mice are sacrificed on day 43. Placebo mices also called sham exposed mices are injected with PBS.
Bronchoalveolar lavage fluid (BALF) analysis is the same as previously described in Example 3 (model of airway obstruction and inflammation).
Results of inflammatory cells in bronchoalveolar lavage fluid number were expressed as mean +/− SEM and the comparison between the groups is performed using Mann-Whitney test. Tests are performed using GraphPad Prism 5. […]

CCC(=O)OCC(=O)[C@@]1(OC(=O)CC)[C@@H](C)C[C@H]2[C@@H]3CCC4=CC(=O)C=C[C@]4(C)[C@@]3(F)[C@@H](O)C[C@@]21C [Betamethasone Dipropionate]
stability under autoclave [1]: degrades under autoclave

CCCC1O[C@@H]2C[C@H]3[C@@H]4CCC5=CC(=O)C=C[C@]5(C)[C@H]4[C@@H](O)C[C@]3(C)[C@]2(C(=O)CO)O1 (stereo partly drawn) [budesonide, 16,17-(butylidenebis(oxy))-11,21-dihydroxy-, (11-β3,16-a)-pregna-1,4-diene-3,20-dione]
IL13 levels in lung tissue after allergen exposure ([2]; budesonide about 100 μg/ml compared to budesonide about 100 μg/ml—cyclodextrin about 10 mM): higher IL13 levels
IL13 levels in lung tissue after allergen exposure ([2]; budesonide about 250 μg/ml compared to complex budesonide about 250 μg/ml—cyclodextrin about 10 mM): higher levels of IL13
inflammation level in BALF of treated mice [3]: significantly not efficient enough
Percentage of neutrophils (+/−SEM) in BALF, Neutrophils (%) ([3]; about 50 μl intra-nasal 5 days per week during 6 weeks): about 9.64%

Source: patent publication US9993487B2 (Universite de Liege, priority 2014, dated 2018)
